The text below walks through data of patent US3960859A, “21-Deoxydihydroajmaline derivatives” (VEB Arzneimittelwerk Dresden, priority 1975, dated 1976).

Structures can show the parent of a compound that is named as a salt.

The conditions of data set [1]: background statement; cited from earlier work.
Data set [2] has as its system aconitine-induced ventricular extrasystoles. Put plainly: Aconitine test procedures carried out in rats (antiarrhythmic activity). It counts as in vivo. The source says: (§1) In the procedures the term ED20 designates the dose in mg/kg at which only isolated or sporadic ventricular extrasystoles occur.
A short description of the next data set: in vivo. Particulars: for Q: Table 1, ratio not defined in text (equals LD50/ED20).
From the text: as §1

The subject of data set [3] is fibrillation or flutter generated by aconitine. Format: in vivo. Particulars: dog.

With `CCC(C)C1CC2NC3CC4(c5ccccc5N(C)C24)C(O)C31` (stereo not shown) [21-deoxydihydroajmaline], the “rhythm regulating / antiarrhythmic activity (in words)” value in data set [1] is recorded as “rhythm regulating activity is extensively lost”.
With `CC[C@H]1[C@@H]2C[C@H]3[C@@H]4N(C)c5ccccc5[C@]45C[C@@H]([C@H]2[C@H]5O)N3[C@@H]1O` [Ajmaline, ajmaline], in data set [2] (Rattus norvegicus), the ED20 stood at 2.13 mg/kg. The Q in the data set “in vivo” was found to be 12.2. This compound showed an LD50 in the data set “in vivo” (rat, in vivo) of 26 mg/kg. For the same compound, the “rhythm regulating / antiarrhythmic activity (in words)” value in data set [1] is “valuable antiarhythmic properties”.
In the case of `CCC(C)C1CC2C3N(C)c4ccccc4C34CC(C1C4O)N2CCN1CCCCC1` (stereo not drawn) [Example 3, 4-(β-piperidinoethyldeoxydihydroajmaline-dihydrochloride)], the ED20 in data set [2] (Rattus norvegicus) was found to be 0.25 mg/kg. In data set [3] (Example 3 (0.6 mg/kg)), the side effects result is given as “no side effects”. For the same compound, in data set [3] (Example 3 at 0.6 mg/kg compared with N-propylajmaline at 0.3 mg/kg), the “therapeutic effectiveness against aconitine fibrillation or flutter” value is given as “about the same therapeutic effectiveness as N-propylajmaline administered in a dose of 0.3 mg/kg”. In “in vivo”, the Q worked out at 21.6. This compound also had an LD50 in the data set “in vivo” (rat, in vivo) of 5.4 mg/kg.
Regarding `CCC[N+]12[C@H](O)[C@@H](CC)[C@@H]3C[C@H]1[C@@H]1N(C)c4ccccc4[C@]14C[C@H]2[C@@H]3[C@H]4O` [N-Propylajmaline, N-propylajmaline], the ED20 in data set [2] (aconitine test, rats, dose at which only isolated or sporadic ventricular extrasystoles occur) is 0.17 mg/kg. The “undesirable side effects, share of cases” value in data set [3] (N-propylajmaline (0.3 mg/kg)) is listed as “at least 30%”. For the same compound, in “in vivo” (Table 1, aconitine test procedures in rats, unit not given), the LD50 was found to be 1.4.
